Laboratory results reported in patent US20180020676A1 (priority 2014, published 2018).

Assays:
[1] = system: bean rust (Uromyces appendiculatus); assay: Greenhouse control of bean rust versus […] OPTIMUM and chemical agents; assay type: in vivo; conditions: bean plants, 200 k conidia/ml, ten days after infection; biologicals 1×10^8 cfu/ml, Tebuconazole 50 g a.i./ha, Chlorothalonil 500 g a.i./ha; 0.1875% TACTIC in all
[2] = system: bean rust (Uromyces appendiculatus); assay: Greenhouse control of bean rust at varying rates of inoculation; assay type: in vivo; conditions: 200K conidia/ml, ten days after infection, biologicals 1×10^8 cfu/ml, Tebuconazole 50 g a.i./ha
Method: The formulations and treatment methods used were the same as described for the previous experiment. One day after treatment application, the test plants were infected with bean rust (Uromyces appendiculatus) at an inoculation rate ranging from 50 k to 300 k conidia/ml. Ten days after infection with bean rust (Uromyces appendiculatus) the percent of disease control was evaluated for each of: […]

Q: For N#Cc1c(Cl)c(Cl)c(Cl)c(C#N)c1Cl [Chlorothalonil], which “Percent Disease Control” value [1] is on record?
A: Its value is 100%.

Q: With CC(C)(C)C(O)(CCc1ccc(Cl)cc1)Cn1cncn1 (stereo not drawn) [Tebuconazole] as the molecule, how does the “Percent Disease Control” value [2] read?
A: Its value is 100 a %.

Q: What about the “Percent Disease Control” value [1] of the same molecule?
A: Its value is 100%.
